Experimental data reported in patent US20070087976A1, “Topiramate and pharmaceutical formulations thereof” (priority 2005, published 2007).

Key:
[1] = storage at 80° C. for one month, color changes; format: physicochemical
[2] = water absorption (sorption isotherm) at 25° C. and 90% r.h.; format: physicochemical
Protocol: Thus, the pure active substance absorbs less than 0.1% of water at 25° C. at 90% r.h., as indicated by the sorption isotherm shown in FIG. 1. […] The topiramate according to the invention is therefore particularly suitable for the preparation of pharmaceutical formulations. The tablet formulations according to the invention which are obtainable by direct compression absorb less moisture than commercially available tablets. […] In contrast, topiramate tablets according to the invention, as in example 1 below, absorb only 5.5% of water under the same conditions.

- color changes on storage [1]: no color changes
- water absorbed [2]: less than 0.1%
SMILES: CC1(C)O[C@@H]2[C@@H](CO[C@@]3(COS(N)(=O)=O)OC(C)(C)O[C@@H]23)O1 [topiramate, 2,3:4,5-bis-O-(1-methylethylidene)-β-D-fructopyranose sulfamate]
